This note sets out measurements from the supplement of paper PMC10307832.

What all share (assay): relative viability (nuclei count vs DMSO), 5 days (fraction); higher = more cells survive
Compound in test [1]: CCn1c(-c2nonc2N)nc2c(C#CC(C)(C)O)ncc(OC[C@H]3CCCNC3)c21 + CCNC(=O)c1noc(-c2cc(C(C)C)c(O)cc2O)c1-c1ccc(CN2CCOCC2)cc1 [Luminespib] (partner 0.01 µM)
In outline:
(§1)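 Cells from lung cancer lines were seeded into 1536-well plates and, one day later, dosed by pin tool. Treatments were either a single drug or a fixed dose of an anchor drug with five library-drug doses (not always all listed) in √10 steps. After 5 days, nuclei were stained in a one-step fixation (final 0.05% Triton X-100, 1% formaldehyde, 1 ug/ml Hoechst) and counted on 4× images, and relative viability is the treated-to-vehicle nuclei ratio, as the median of duplicate plates.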

Compound in test [2]: CCOC1=CC=CC=C1N=NC2=C(NN(C2=O)C3=NC(=CS3)C4=CC=CC=C4)C [BAM7] + CC(=O)Nc1cccc(-n2c(=O)n(C3CC3)c(=O)c3c(Nc4ccc(I)cc4F)n(C)c(=O)c(C)c32)c1 [Trametinib] (partner 0.02 µM)
The gist of the method:
as §1

Compound in test [3]: CCn1c(-c2nonc2N)nc2c(C#CC(C)(C)O)ncc(OC[C@H]3CCCNC3)c21 + CC(C)C[C@H](NC(=O)[C@H](Cc1ccccc1)NC(=O)c1cnccn1)B(O)O [Bortezomib] (partner 0.002 µM)
The gist of the method:
as §1

Compound in test [4]: CCn1c(-c2nonc2N)nc2c(C#CC(C)(C)O)ncc(OC[C@H]3CCCNC3)c21 + Nc1nc2[nH]cc(CCc3ccc(C(=O)N[C@@H](CCC(=O)O)C(=O)O)cc3)c2c(=O)[nH]1 [Pemetrexed] (partner 0.2 µM)
The gist of the method: as §1

On to UMC-11, for which the relative viability was found to be 0.97 in test [1] (first compound 0.01 µM); 0.922 in test [1] (first compound 0.03162 µM); 0.991 in test [1] (first compound 0.1 µM); 0.956 in test [1] (first compound 0.3162 µM); 1 in test [1] (first compound 1 µM); 0.694 in test [2] (first compound 0.5 µM). For the same cell line, the relative viability in test [2] (first compound 5 µM) is 0.83; in test [2] (first compound 15.81 µM), 0.728; in test [2] (first compound 50 µM) it was 0.71; in test [3] (first compound 0.01 µM), 0.676; in test [3] (first compound 0.03162 µM), 0.905; in test [3] (first compound 0.1 µM) it was 0.833. Further, the relative viability in test [3] (first compound 0.3162 µM) amounted to 0.48; in test [3] (first compound 1 µM), 0.661; in test [4] (first compound 0.01 µM) it was 0.804; in test [4] (first compound 0.03162 µM) it was 0.758; in test [4] (first compound 0.1 µM) it was 0.749; in test [4] (first compound 0.3162 µM), 0.722. Further, the relative viability in test [4] (first compound 1 µM) amounted to 0.758.
